According to PubChem BioAssay AID1199 (EPA DSSTox, 2008):
The source made the active and inactive calls.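 Rule for the calls: active = a tumour-causing dose and a tumour site recorded for mice in at least one sex group; inconclusive = only government mouse studies exist and were judged inadequate; inactive = mouse studies exist but none gave tumours.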

Test system: mouse carcinogenicity bioassay, TD50 from CPDB
Assay: DSSTox (CPDBAS) Carcinogenic Potency Database Summary Mouse Bioassay Results
Conditions: for outcome: TD50_Mouse_Note: no positive results
How it was run: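 Chronic long-term mouse cancer bioassays from literature and NCI/NTP, compiled per sex. TD50 is the standardized carcinogenic potency, using the most positive experiment per sex-species; target sites follow author opinion.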

[1] = TargetSites_Mouse_Female: no positive results
[2] = TD50_Mouse_Note: TD50 is harmonic mean of more than one positive test, TargetSites_Mouse_Female: vascular system
[3] = TD50_Mouse_Note: TD50 is harmonic mean of more than one positive test, TargetSites_Mouse_Female: lung
[4] = TD50_Mouse_Note: TD50 is harmonic mean of more than one positive test, TargetSites_Mouse_Female: liver

SMILES: O=C(O)c1ccccc1-c1c2cc(I)c(=O)c(I)c-2oc2c(I)c(O)c(I)cc12
- outcome [1]: inactive; no positive results

SMILES: CCOP(=S)(OCC)Oc1ccc2c(C)c(Cl)c(=O)oc2c1
- outcome [1]: inactive; no positive results

SMILES: NC(CCC(=O)O)C(=O)O (stereo not drawn)
- outcome: inactive; no positive results

SMILES: COC(=O)c1ccc(C(=O)OC)cc1
- outcome [1]: inactive; no positive results

SMILES: CCOc1ccc(NC(C)=O)cc1
- Potency (TD50_Mouse_Note: TD50 is harmonic mean of more than one positive test, greater than ten-fold variation among TD50 values for positive res, TargetSites_Mouse_Female: urinary bladder): 11.9 mmol/kg/day

SMILES: CN1C(=O)CN=C(c2ccccc2)c2cc(Cl)ccc21
- outcome [1]: inactive; no positive results

SMILES: CCOP(=S)(OCC)Oc1cc(C)nc(C(C)C)n1
- outcome [1]: inactive; no positive results

SMILES: Clc1cc2c(cc1Cl)Oc1cc(Cl)c(Cl)cc1O2
- Potency (TD50_Mouse_Note: TD50 is harmonic mean of more than one positive test, TargetSites_Mouse_Female: liver, thyroid gland): 4.85e-07 mmol/kg/day

SMILES: COc1cc2c(c3oc4cccc(O)c4c(=O)c13)C1C=COC1O2 (stereo not drawn)
- Potency [2]: 0.0028 mmol/kg/day

SMILES: O=C(O)COc1ccc(Cl)cc1Cl
- outcome [1]: inactive; no positive results

SMILES: CC(=O)OC[C@H]1O[C@H](O[C@]2(COC(C)=O)O[C@H](COC(=O)C(C)C)[C@@H](OC(=O)C(C)C)[C@@H]2OC(=O)C(C)C)[C@H](OC(=O)C(C)C)[C@@H](OC(=O)C(C)C)[C@@H]1OC(=O)C(C)C
- outcome [1]: inactive; no positive results

SMILES: Nc1cc([N+](=O)[O-])ccc1O
- outcome [1]: inactive; no positive results

SMILES: Nc1ccc2c(c1)C(=O)c1ccccc1C2=O
- Potency (TD50_Mouse_Note: TD50 is harmonic mean of more than one positive test, TargetSites_Mouse_Female: hematopoietic system, liver): 5.33 mmol/kg/day

SMILES: NNC=O
- Potency (TD50_Mouse_Note: TD50 is harmonic mean of more than one positive test, harmonic mean of TD50 includes a value for upper 99% confidence li, TargetSites_Mouse_Female: lung): 0.606 mmol/kg/day

SMILES: C=Cc1ccccc1
- Potency [3]: 2.02 mmol/kg/day

SMILES: CN(C)c1ccc(C(=N)c2ccc(N(C)C)cc2)cc1
- Potency [4]: 0.206 mmol/kg/day

SMILES: Oc1ccccc1
- outcome [1]: inactive; no positive results

SMILES: O=C(CCl)c1ccccc1
- outcome [1]: inactive; no positive results

SMILES: O=[N+]([O-])c1ccc(Cl)cc1
- Potency [2]: 3 mmol/kg/day

SMILES: O=[N+]([O-])c1ccc2nc[nH]c2c1
- Potency [4]: 2.28 mmol/kg/day

SMILES: CCOC(=O)CC(SP(=S)(OC)OC)C(=O)OCC (stereo not drawn)
- outcome [1]: inactive; no positive results

SMILES: c1ccc2c(c1)ccc1cc3c(ccc4ccccc43)cc12
- Potency: 0.0211 mmol/kg/day

SMILES: CC(Cc1ccccc1)NN (stereo not drawn)
- outcome [1]: inactive; no positive results

SMILES: CC(=O)Nc1ccc(C(=O)CCl)cc1
- outcome [1]: inactive; no positive results

SMILES: Nc1ccccc1
- outcome [1]: inactive; no positive results

SMILES: c1ccc2c(c1)cc1ccc3cccc4ccc2c1c34
- Potency (TD50_Mouse_Note: TD50 is harmonic mean of more than one positive test, TargetSites_Mouse_Female: esophagus, oral cavity, stomach): 0.0138 mmol/kg/day

SMILES: O=NN(c1ccccc1)c1ccccc1
- outcome [1]: inactive; no positive results

SMILES: O=CCCCC=O
- outcome [1]: inactive; no positive results

SMILES: Cc1ccc(C)c(N)c1
- Potency [4]: 3.97 mmol/kg/day

SMILES: S=C(NC1CCCCC1)NC1CCCCC1
- outcome [1]: inactive; no positive results

SMILES: COC(N)=O
- outcome [1]: inactive; no positive results

SMILES: ClC(Cl)(Cl)c1ccccc1
- Potency (TargetSites_Mouse_Female: hematopoietic system, lung, stomach): 0.00203 mmol/kg/day

SMILES: CN1CCC[C@H]1c1cccnc1
- outcome [1]: inactive; no positive results

SMILES: NN
- Potency [3]: 0.0914 mmol/kg/day

SMILES: Cc1c(N)nc(C)c2c1[nH]c1ccccc12
- Potency [4]: 0.15 mmol/kg/day

SMILES: Cn1cnc([N+](=O)[O-])c1Sc1ncnc2nc[nH]c12
- Potency (TargetSites_Mouse_Female: hematopoietic system, vascular system): 0.0322 mmol/kg/day

SMILES: C[N+](C)(C)CCO
- outcome: inactive; no positive results

SMILES: CCCNN
- Potency [3]: 0.411 mmol/kg/day

SMILES: Nc1ccc(N=Nc2ccc(N)cc2)cc1
- outcome [1]: inactive; no positive results

SMILES: CC(C)(Oc1ccc(C2CC2(Cl)Cl)cc1)C(=O)O (stereo not drawn)
- Potency (TD50_Mouse_Note: TD50 is harmonic mean of more than one positive test): 0.0214 mmol/kg/day

SMILES: Nc1c(F)c(N)c(F)c(F)c1F
- Potency [1]: 0.341 mmol/kg/day

SMILES: O=Cc1ccco1
- Potency [4]: 2.05 mmol/kg/day

SMILES: C[N+](=O)[O-]
- Potency (TD50_Mouse_Note: TD50 is harmonic mean of more than one positive test, TargetSites_Mouse_Female: harderian gland, liver, lung): 7.68 mmol/kg/day

SMILES: CC(C)COC(=O)c1ccc(O)cc1
- outcome [1]: inactive; no positive results

SMILES: Nc1cccc(N)c1
- outcome [1]: inactive; no positive results

SMILES: Nc1ccc(Cl)cc1
- outcome [1]: inactive; no positive results
- Potency [1]: 0.546 mmol/kg/day

SMILES: OC(c1ccc(Cl)cc1)(c1ccc(Cl)cc1)C(Cl)(Cl)Cl
- Potency [1]: 0.0888 mmol/kg/day
